According to patent US20220306653A1, “MACROCYCLIC INHIBITORS OF MCL-1” (Janssen Pharmaceutica NV, priority 2019, published 2022):
“And” between values parts separate entries of the source, which are not always exact repeats. Equal entries are not always repeated. Where two headings read alike, the source gives them in different places.

Key:
[1] = system: MOLP-8 human multiple myeloma cell line; test: MOLP8 Caspase-Glo 3/7 luminescent assay; type: cell-based; details: 2 hours incubation, averaged values over all runs on all batches
Text: (§1) MCL-1 is a regulator of apoptosis and is highly over-expressed in tumor cells that escape cell death. The assay evaluates the cellular potency of small-molecule compounds targeting regulators of the apoptosis pathway, primarily MCL-1, Bfl-1, Bcl-2, and other proteins of the Bcl-2 family. Protein-protein inhibitors disrupting the interaction of anti-apoptotic regulators with BH3-domain proteins initiate apoptosis.
The Caspase-Glo® 3/7 Assay is a luminescent assay that measures caspase-3 and -7 activities in purified enzyme preparations or cultures of adherent or suspension cells. The assay provides a proluminescent caspase-3/7 substrate, which contains the tetrapeptide sequence DEVD. This substrate is cleaved to release aminoluciferin, a substrate of luciferase used in the production of light. Addition of the single Caspase-Glo® 3/7 Reagent in an “add-mix-measure” format results in cell lysis, followed by caspase cleavage of the substrate and generation of a “glow-type” luminescent signal.
This assay uses the MOLP-8 human multiple myeloma cell line, which is sensitive to MCL-1 inhibition.
Cell cultures were maintained between 0.2 and 2.0×10^6 cells/mL. The cells were harvested by collection in 50 mL conical tubes. The cells were then pelleted at 500 g for 5 mins before removing supernatant and resuspension in fresh pre-warmed culture medium. The cells were counted and diluted as needed.
The assay reagent was prepared by transferring the buffer solution to the substrate vial and mixing. The solution may be stored for up to 1 week at 4° C. with negligible loss of signal.
Compounds were delivered in assay-ready plates (Proxiplate) and stored at −20° C.
Assays always include 1 reference compound plate containing reference compounds. The plates were spotted with 40 nL of compounds (0.5% DMSO final in cells; serial dilution; 30 μM highest conc. ⅓ dilution, 10 doses, duplicates). The compounds were used at room temperature and 4 μL of pre-warmed media was added to all wells except column 2 and 23. The negative control was prepared by adding 1% DMSO in media. The positive control was prepared by adding the appropriate positive control compound in final concentration of 60 μM in media. The plate was prepared by adding 4 μL negative control to column 23, 4 μL positive control to column 2 and 4 μL cell suspension to all wells in the plate. The plate with cells was then incubated at 37° C. for 2 hours. The assay signal reagent is the Caspase-Glo solution described above, and 8 μL was added to all wells. The plates were then sealed and measured after 30 minutes.
The activity of a test compound was calculated as percent change in apoptosis induction as follows:
LC=median of the Low Control values • =Central Reference in Screener • =DMSO • =0% ΠC=Median of the High Control values • =Scale Reference in Screener • =30 pM of positive control • =100% apoptosis induction
% Effect (AC50)=100−(sample−LC)/(HC−LC)*100
% Control=(sample/HC)*100
% Control min=(sample−LC)/(HC−LC)*100

[2] = system: Molp8 multiple myeloma cell line; test: Molp8 multiple myeloma cell line survival assay using Annexin V and 7AAD; type: cell-based, human; details: live cell percent by Annexin V/7AAD flow cytometry, 3 days incubation, each independent run listed individually, read-out: MOLP8 Apoptosis IC50
Text: Molp8 multiple myeloma cell line survival assay using Annexin V and 7AAD.
The Annexin V/7AAD principle is based on the location of phosphatidylserine in the plasma membrane and the integrity of the membrane barrier. During early apoptosis, phosphatidylserine loses its normal distribution patterns in the inner leaflet of the plasma membrane and appears on the exterior of the plasma membrane. Annexin proteins are calcium dependent phospholipid binding proteins and can bind phosphatidylserine on the outer membrane during cell death. The viability dye 7AAD is excluded from entering cells with intact plasma membranes but accumulates in cells that have lost membrane integrity. Annexin Fitc is excited by the 488 nm laser (max excitation: 490 nm, max emission: 525 nm) as is 7AAD (excitation: 488 nm, emission: 650 nm), which allows this assay to be completed on any multicolor flow cytometer.
The assay conditions were optimized using the following 1× reaction buffer: 5 mM HEPES (4-(2-hydroxyethyl)-1-piperazineethanesulfonic acid), 70 mM NaCl, 1.25 mM CaCl2, pH 7.4.
The Molp 8 cells were multiple myeloma, human, in suspension (*cells were counted 2× per week and culture density maintained between 0.5 and 1.5×10^6 cells per ml).
On Day 1, 5×10^4 live cells per well were plated in a 96-well U-bottom plate, with the cells plated in 100 uL RPMI+10% FBS. An 11-point compound dilution plate was prepared in 3-fold steps (Final concentration range 10 μM-0.1 nM) and added at a concentration of 1 μL per well. The plate was then incubated for 3 days at 37° C. and 5% CO2.
On Day 4, the cells were pelleted and the media discarded. The cells were then resuspended in 50 μL AnnexinV-Fitc (1:40 dilution) and 7AAD (1:100 dilution) in Annexin binding buffer, then incubated for 30 min @ room temperature in the dark. 50 μL binding buffer (100 uL total volume) was then added to the cells. There was no wash step required.
Within 2 hours, PeCy5 (7AAD) and Fitc (Annexin) channels were recorded using BD Canto, collecting a minimum per singlet of 10,000 events.
The activity of a test compound was calculated based on the live cell percentage. • LC=Median of the low control values • =Low control: cells without treatment (no greater than 100% live) • HC=Median of the high control values • =High control: cells treated with 10 uM drug (no less than 0% live)
A best-fit curve was fitted by a minimum sum of squares method to the plot of live cell percent vs. compound concentration. From this an IC50 value (inhibitory concentration causing 50% cytotoxicity) was obtained. An estimate of the slope of the plot in terms of the Hill coefficient was also obtained.

[3] = system: MOLP8 cells; test: MOLP8 CellEvent Caspase-3/7 Green apoptosis activation assay (IncuCyte live-cell kinetic readout); type: cell-based; details: each independent run listed
Protocol: as §1
Activation of the apoptotic pathway was measured using the CellEvent™ Caspase-3/7 Green ReadyProbes™ Reagent (Thermo Fisher C10423, C10723). This assay produces a green fluorescent stain in cells that enter the apoptosis pathway. CellEvent® Caspase-3/7 Green reagent is a four amino acid peptide (DEVD) conjugated to a nucleic acid-binding dye that is non-fluorescent when not bound to DNA. The CellEvent® Caspase-3/7 Green reagent is intrinsically non-fluorescent, as the DEVD peptide inhibits binding of the dye to DNA. Upon activation of caspase-3/7 in apoptotic cells, the DEVD peptide is cleaved and the free dye can bind DNA, generating a bright green fluorescence. The activation of Caspase-3 and Caspase-7 is downstream of inhibition of MCL-1 or other apoptosis inhibiting proteins in cell lines that are dependent on them.
The live-cell readout on the IncuCyte permits tracking over time of the Caspase activation. […] The IncuCyte readout also allows one to normalize for cell number, as the suspension cells are hard to distribute evenly.
Signals were measured every 2 h for a duration of 22 h. The ratio of the Caspase mask to the Confluence mask, per image, as raw data, was calculated and the kinetic trace for every well was exported to Genedata Screener for analysis.
In Genedata Screener values for 6 h, 12 h, and 22 h from the kinetic traces were extracted. The values were normalized against negative controls (untreated cells). A standard dose-response analysis was performed on the normalized data.
The following data was reported at each of the following three aforementioned time points: (a) The dose-response curve, (b) The qAC50 and qAC50 Mode, and (c) Max Activity.
Cells were maintained in culture medium containing 10% Heat Inactivated (HI) FBS, 2 mM L-Glutamine and 50 µg/mL Gentamycin phenol red free RPMI-1640. Cells were split at 0.4 million/mL twice a week.
On Day 1, plates containing individual wells with test compounds at 10 mM concentration, 150 nL per well. The final concentrations range from […] compound (and no compound control) and compounds were thawed at room temperature for 1 hour. 25 μl of prewarmed medium was added into each well by multidrop (column 1, 3-22, 24), followed by addition of DMSO control (0.6% DMSO) in column 2. The plate was sealed using Breathe-Easy® sealing membrane and shaken for 30 min at room temperature to dissolve the test compound(s) in medium. The plate was then kept in the incubator for 1 hour at 37° C., 5% CO2.
MOLP8 cells in medium at […] (20000/50 μl final in assay) were prepared with CellEvent™ Caspase-3/7 Green Detection Reagent at 4 μM (2 μM final in assay). Once prepared, the cells were added to the test compound plate in an amount of 20000 and the plate was immediately placed in the IncuCyte and imaging started using following settings: 10× objective, 2 s exposure time in green channel, interval of 2 h, acquisition stopped after 22 h.
For analysis in IncuCyte, a Basic Analysis protocol was defined to calculate the “confluence” and “caspase” areas from the “Phase” and “green” images, respectively, as follows: (a) Confluence: Segmentation Adjustment 1, Hole Fill 0, Adjust Size −2, No filters (b) Caspase: Top-Hat segmentation, Radius 10, Threshold 0.3 GCU, Edge Split On with sensitivity 0, Hole Fill 0, Adjust Size 1, and filter on a minimum Area of 20 μm^2. The analyzer is trained on a sufficient number of positive and negative control wells, as well as compound treated wells, verifying that the “confluence” layer detects both live and dead (condensed) cells. […]

[4] = Homo sapiens, MOLP-8, 6 h, 6 h, read-out: MOLP8 Caspase 3/7 AC50 at 6 h
[5] = Homo sapiens, MOLP-8, 12 h, 12 h, read-out: MOLP8 Caspase 3/7 AC50 at 12 h

Structure (SMILES) | AC50 ([1]; Homo sapiens, MOLP-8, 2 h) [nM] | AC50 [1] [nM] | also measured
Cc1c(C(=O)O)n2c3ccc(Cl)c(c13)-c1c(nn(C)c1C)CN(C)Cc1cc(n(C)n1)CSc1cc(c3ccccc3c1)OCCC2 (single isomer, unassigned) [Compound 5] | 14500 |  | 
Cc1c(C(=O)O)n2c3ccc(Cl)c(c13)-c1c(nn(C)c1C)CSCc1cc([nH]n1)CSc1cc(c3ccccc3c1)OCCC2 (single isomer, unassigned) [Compound 7] | 70 |  | 
Cc1c(C(=O)O)n2c3ccc(Cl)c(c13)-c1c(nn(C)c1C)CSCc1cc([nH]n1)CSc1cc(c3ccccc3c1)OCCC2 (single isomer, unassigned) [Compound 8] |  | 90 | 
CCn1nc2cc1CSc1cc(c3ccccc3c1)OCCCn1c(C(=O)O)c(C)c3c(c(Cl)ccc31)-c1c(nn(C)c1C)CSC2 (single isomer, unassigned) [Compound 10] | 120 |  | 
CCn1nc2cc1CSCc1nn(C)c(C)c1-c1c(Cl)ccc3c1c(C)c(C(=O)O)n3CCCOc1cc(cc3ccccc13)SC2 (single isomer, unassigned) [Compound 11] | > 30000 |  | 
Cc1c(C(=O)O)n2c3ccc(Cl)c(c13)-c1c(nn(C)c1C)CSCc1cc(n(C(C)C)n1)CSc1cc(c3ccccc3c1)OCCC2 (single isomer, unassigned) [Compound 12] | 510 |  | 
Cc1c(C(=O)O)n2c3ccc(Cl)c(c13)-c1c(nn(C)c1C)CSCc1cc(nn1C(C)C)CSc1cc(c3ccccc3c1)OCCC2 (single isomer, unassigned) [Compound 13] | 1250 |  | 
Cc1[nH]nc2c1-c1c(Cl)ccc3c1c(C)c(C(=O)O)n3CCCOc1cc(cc3ccccc13)SCc1cc(nn1C)CN(C)C2 (single isomer, unassigned) [Compound 14] |  | 920 | 
Cc1[nH]nc2c1-c1c(Cl)ccc3c1c(C)c(C(=O)O)n3CCCOc1cc(cc3ccccc13)SCc1cc(nn1C)CN(C)C2 (single isomer, unassigned) [Compound 15] |  | 15300 | 
Cc1[nH]nc2c1-c1c(Cl)ccc3c1c(C)c(C(=O)O)n3CCCOc1cc(cc3ccccc13)SCc1cc(nn1C)CSC2 (single isomer, unassigned) [Compound 16] |  | 540 | 
Cc1[nH]nc2c1-c1c(Cl)ccc3c1c(C)c(C(=O)O)n3CCCOc1cc(cc3ccccc13)SCc1cc(nn1C)CSC2 (single isomer, unassigned) [Compound 17] |  | 21300 | 
Cc1c(C(=O)O)n2c3ccc(Cl)c(c13)-c1c(nn(C)c1C)CN(C)Cc1cc(n(C)n1)CSc1cc(c3ccccc3c1)OCCC2 [Compound 3, 15-chloro-13,21,25,61,4-pentamethyl-11H,21H,61H-10-oxa-8-thia-4-aza-1(4,1)-indola-2(4,3),6(3,5)-dipyrazola-9(3,1)-naphthalenacyclotridecaphane-12-carboxylic acid] |  |  | IC50 ([2]; Homo sapiens, MOLP-8, 72 h): 200 nM; IC50 [2]: 256 nM; AC50 ([3]; 6 h, read-out: MOLP8 Caspase 3/7 AC50 at 6 h): 178 nM and 251 nM; AC50 ([3]; 12 h, read-out: MOLP8 Caspase 3/7 AC50 at 12 h): 263 nM and 195 nM; AC50 [3, 4]: 347 nM; AC50 [3, 5]: 363 nM
Cc1c(C(=O)O)n2c3ccc(Cl)c(c13)-c1c(nn(C)c1C)CNCc1cc(n(C)n1)CSc1cc(c3ccccc3c1)OCCC2 [Compound 4, 15-Chloro-13,21,25,61-tetramethyl-11H,21H,61H-10-oxa-8-thia-4-aza-1(4,1)-indola-2(4,3),6(3,5)-dipyrazola-9(3,1)-naphthalenacyclotridecaphane-12-Carboxylic acid] | 920 |  | AC50 [3, 4]: 1620 nM; AC50 [3, 5]: 1590 nM; AC50 ([3]; Homo sapiens, MOLP-8, 22 h, 22 h, read-out: MOLP8 Caspase 3/7 AC50 at 22 h): 1380 nM
Cc1c(C(=O)O)n2c3ccc(Cl)c(c13)-c1c(nn(C)c1C)CN(C(C)C)Cc1cc(n(C)n1)CSc1cc(c3ccccc3c1)OCCC2 [Compound 9] | 160 |  | 
